# Test results taken from patent publication US20200392126A1, “ISOXAZOLYL COMPOUNDS AS RECEPTOR MODULATING COMPOUNDS AND METHODS AND USES THEREOF” (BIONOMICS LIMITED, priority 2017, published 2020).
# Like-named read-outs stand apart in the source and are kept apart here.
# Molecular target: T1, hnAChR α7/ric3 (Homo sapiens, UniProt P36544)
# T1 construct: expressed in transfected cells
# Assay: IonFlux HT electrophysiological recording of hnAChR α7/ric3 currents, inhibition of ACh (200 μM, EC80) peak current
# Assay type: cell-based
# Protocol: All wells included a final DMSO concentration of 0.33% including all control wells.
# The solutions for recording hnAChR α7/ric3 currents were:
# All recordings were obtained from a holding potential of −60 mV.
# Compounds were assayed using bump-in protocol. The compound addition sequence that was used for all additions was the same for all assays. One addition of the EC80 concentration of ACh (200 μM) was added to establish baseline response. The test compounds were tested on cells in increasing concentrations of 0.12, 0.37, 1.1, 3.3, 10 μM±200 μM ACh for all compounds. Each compound was applied for one minutes followed by the addition of 200 μM ACh for 1 second.
# Peak inward currents in response to the ACh additions in the presence of increasing concentrations of compound were measured.
# Potentiation of ACh Response=(I^Compound^+^ACh/I^ACh)
# All data were first exported to an Excel compatible data file and then analyzed using Graph Pad Prism software.
# [1] = hnAChR α7/ric3, 0.12-10 μM compound, 1 min preincubation, then 200 μM ACh for 1 s, holding potential −60 mV, read-out: IC50
# T1 sequence (P36544 23-502): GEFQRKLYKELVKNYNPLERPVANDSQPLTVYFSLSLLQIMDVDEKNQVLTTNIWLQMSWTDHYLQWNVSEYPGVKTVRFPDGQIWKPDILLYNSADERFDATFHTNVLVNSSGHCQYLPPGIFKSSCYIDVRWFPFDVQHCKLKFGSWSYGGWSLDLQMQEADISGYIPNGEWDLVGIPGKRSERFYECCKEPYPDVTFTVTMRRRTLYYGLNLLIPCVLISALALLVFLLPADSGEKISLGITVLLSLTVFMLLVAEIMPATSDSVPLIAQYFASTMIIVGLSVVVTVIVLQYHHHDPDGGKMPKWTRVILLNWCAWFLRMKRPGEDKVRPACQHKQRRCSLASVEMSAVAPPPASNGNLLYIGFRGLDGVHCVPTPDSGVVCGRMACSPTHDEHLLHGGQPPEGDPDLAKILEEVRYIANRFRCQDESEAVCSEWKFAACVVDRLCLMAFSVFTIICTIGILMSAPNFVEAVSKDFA
Compound,IC50,IC50 [1]
"Cc1nocc1S(=O)(=O)NC1(c2ccccc2)CCCCC1 [Compound 1, 3-Methyl-N-(1-phenylcyclohexyl)isoxazole-4-sulfonamide]",5.7 µM,
"Cc1nocc1S(=O)(=O)NCCc1ccccc1 [Compound 2, 3-Methyl-N-phenethylisoxazole-4-sulfonamide]",,1.7 µM
"Cc1nocc1S(=O)(=O)NCCc1ccc(F)cc1 [Compound 3, N-(4-Fluorophenethyl)-3-methylisoxazole-4-sulfonamide]",,2.2 µM
Cc1nocc1S(=O)(=O)N1CCC(c2ccc(F)cc2)CC1 [Compound 7],,0.4 µM
"Cc1nocc1S(=O)(=O)N1CCN(c2ccc(F)cc2)CC1 [Compound 8, 4-(4-(4-Fluorophenyl)piperazin-1-ylsulfonyl)-3-methylisoxazole]",2.2 µM,
"Cc1nocc1S(=O)(=O)N1CCN(c2ccccn2)CC1 [Compound 10, 3-Methyl-4-(4-(pyridin-2-yl)piperazin-1-ylsulfonyl)isoxazole]",,6.5 µM
"Cc1nocc1S(=O)(=O)N1CCc2ccccc2CC1 [Compound 11, 3-Methyl-4-((1,2,4,5-tetrahydro-3H-benzo[d]azepin-3-yl)sulfonyl)isoxazole]",,2.9 µM
